Results published in patent publication US20230405007A1, “COMPOUND FOR USE IN AND METHODS OF TREATMENT OF FIBROTIC DISEASES” (Galapagos NV, priority 2020, published 2023).

Tested on: subjects with idiopathic pulmonary fibrosis (IPF)
Experiment: Phase II randomized, double-blind, placebo-controlled IPF clinical study: monitoring of adverse events (SAEs, TEAEs)
Type: in vivo, human
Conditions: for Subjects with Serious TEAE / Subjects with TEAE leading to treatment discontinuation (LD): 100 mg orally once daily, 26 weeks
Text: The study of the current example was a randomized, double-blind, parallel group, placebo-controlled, multicenter, Phase II study to evaluate the efficacy, safety and tolerability of Compound 1 in subjects with idiopathic pulmonary fibrosis (IPF). The primary objective of this study was to evaluate the efficacy of Compound 1 treatment in subjects with IPF on pulmonary function as evaluated by FVC compared to placebo over 26 weeks.
The study provided for 2 types of interventions: • Drug: Compound 1—100 mg administered orally once daily as 2 capsules of 50 mg with or without food • Drug: Compound 1 placebo—administered orally once daily as 2 capsules with or without food
Study participants were randomized over 2 study arms: • 1. Experimental: Compound 1: Compound 1 100 mg, for 26 weeks • 2. Placebo Comparator: Placebo: Compound 1 placebo for 26 weeks
To be eligible, the subjects met the following criteria: • Males or females of non-child-bearing potential, aged ≥40 years. • A diagnosis of IPF within 5 years prior to the screening visit as per American Thoracic Society (ATS)/European Respiratory Society (ERS)/Japanese Respiratory Society (JRS)/Latin American Thoracic Association (ALAT) guidelines. • Meeting all of the following criteria at screening and during the screening period: • FVC≥50% predicted of normal • Disease progression in the last 9 months prior to the screening period and at screening, defined as at least one prescreening FVC value and screening value with a decline of FVC (% predicted or mL), at the investigator's discretion • Diffusing capacity for the lungs for carbon monoxide (DLCO)≥30% predicted of normal (corrected for hemoglobin) • Ratio of forced expiratory volume in one second (FEV1) to FVC≥0.70 • In a stable condition and suitable for study participation based on the results of a medical history, physical examination, vital signs, 12-lead ECG, and laboratory evaluation. Stable condition is based on the clinical judgment of the investigator, co-morbidities should be treated according to the local applicable guidelines. Concomitant medication for comorbidities should be stabilized from 4 weeks before screening and during the screening period (stable defined as no change of dose or regimen). • Estimated minimum life expectancy of 12 months for non-IPF related disease in the opinion of the investigator. • Male subjects with female partners of child bearing potential are willing to comply with the contraceptive methods described in the respective protocol prior to the first dose of the IMP, during the clinical study, and for at least 12 weeks after the last dose of the IMP. • Able to walk at least 150 meters during the 6MWT at screening; without having a contraindication to perform the 6MWT. • Able to understand the importance of adherence, and willing to comply to study treatment, study procedures and requirements as per study protocol, including the concomitant medication restrictions. […]

[1] = Summary All (N = 68, both arms)
[2] = background therapy Nintedanib (N = 24, both arms)
[3] = background therapy None (N = 25, both arms)
[4] = background therapy Pirfenidone (N = 19, both arms)

O=c1nc(OC[C@@H]2COCCO2)cc2n1CCc1cc(C#CC3CC3)ccc1-2 [GLPG1205, 9-Cyclopropylethynyl-2-((S)-1-[1,4]dioxan-2-ylmethoxy)-6,7-dihydro-pyrimido[6,1-a]iso quinolin-4-one]
Subjects with Serious TEAE [1]: 9 n
Subjects with TEAE leading to treatment discontinuation (LD) [1]: 10 n
Subjects with Serious TEAE [2]: 7 n
Subjects with TEAE leading to treatment discontinuation (LD) [2]: 6 n
Subjects with Serious TEAE [3]: 2 n
Subjects with TEAE leading to treatment discontinuation (LD) [3]: 2 n
Subjects with Serious TEAE [4]: 0 n
Subjects with TEAE leading to treatment discontinuation (LD) [4]: 2 n
serious adverse events (SAEs) and/or treatment emergent adverse events (TEAEs) (administered in combination with or alongside nintedanib): increased
